Values quoted from earlier work as cited in patent publication US20010049447A1, “Mibefradil analogues and their use” (priority 2000, published 2001).

System: fructose fed rats

COCC(=O)O[C@]1(CCN(C)CCCc2nc3ccccc3[nH]2)CCc2cc(F)ccc2[C@@H]1C(C)C.Cl.Cl [mibefradil, Methoxyacetic acid 2(S)-[2-[N-[3-(2-benzimidazolyl)propyl]-N-methylamino]ethyl]-6-fluoro-1(S)-isopropyl-1,2,3,4-tetrahydro-2-naphthyl ester dihydrochloride]
blood pressure: decrease | hyperinsulinemia: decrease
